Measurements from ChEMBL document CHEMBL4052785, “Discovery of (R)-5-(benzo[d][1,3]dioxol-5-yl)-7-((1-(vinylsulfonyl)pyrrolidin-2-yl)methyl)-7H-pyrrolo[2,3-d]pyrimidin-4-amine (B6) as a potent Bmx inhibitor for the treatment of NSCLC” (Bioorg Med Chem Lett, 2017).

Tests used:
[1] = species: Homo sapiens; experiment: Selectivity ratio of IC50 for recombinant human full length N-terminal His6-tagged BTK to IC50 for human full length N-terminal His6-tagged BMX
[2] = target: Tyrosine-protein kinase Fyn (Homo sapiens, UniProt P06241); experiment: Inhibition of recombinant human full length N-terminal His6-tagged FYN expressed in baculovirus Sf21 insect cells preincubated for 5 mins followed by biotinyl-beta Abeta Abeta AYQAEENTYDEYEN substrate addition after 30 to 60 mins in presence of ATP by fluorescence assay
[3] = species: Homo sapiens; experiment: Selectivity ratio of IC50 for recombinant human full length N-terminal His6-tagged BRK to IC50 for human full length N-terminal His6-tagged BMX
[4] = target: Tyrosine-protein kinase ABL1 (Homo sapiens, UniProt P00519); experiment: Inhibition of recombinant human N-terminal His6-tagged ABL (27 to end residues) expressed in baculovirus Sf21 insect cells preincubated for 5 mins followed by substrate addition after 30 to 60 mins in presence of ATP by fluorescence assay
[5] = species: Homo sapiens; experiment: Selectivity ratio of IC50 for recombinant human full length N-terminal His6-tagged LCK to IC50 for human full length N-terminal His6-tagged BMX
[6] = species: Homo sapiens; experiment: Selectivity ratio of IC50 for C-terminal His6-tagged human Her2 (676 to end residues) to IC50 for human full length N-terminal His6-tagged BMX
[7] = system: Mus musculus; experiment: Toxicity in nude mouse xenografted with human NCI-H1975 cells assessed as abnormal behavior at 25 mg/kg administered qd via oral gavage for 18 days measured on day 14; assay type: organism-based; conditions: in vivo, 432 h
[8] = target: Tyrosine-protein kinase Lyn (Homo sapiens, UniProt P07948); experiment: Inhibition of recombinant human full length N-terminal His6-tagged LYN expressed in Sf21 insect cells preincubated for 5 mins followed by […] substrate addition after 30 to 60 mins in presence of ATP by fluorescence assay
[9] = species: Homo sapiens; experiment: Selectivity ratio of IC50 for recombinant human N-terminal His6-tagged JAK3 (781 to end residues) to IC50 for human full length N-terminal His6-tagged BMX
[10] = target: Ribosomal protein S6 kinase alpha-1 (Homo sapiens, UniProt Q15418); experiment: Inhibition of RSK1 (unknown origin) preincubated for 5 mins followed by substrate addition after 30 to 60 mins in presence of ATP by fluorescence assay
[11] = target: Dual specificity mitogen-activated protein kinase kinase 7 (Homo sapiens, UniProt O14733); experiment: Inhibition of recombinant human N-terminal GST-tagged MKK7beta (2 to end residues) expressed in Escherichia coli preincubated for 5 mins followed by substrate addition after 30 to 60 mins in presence of ATP by fluorescence assay
[12] = system: Mus musculus; experiment: Toxicity in nude mouse xenografted with human NCI-H1975 cells assessed as body weight loss at 25 mg/kg administered qd via oral gavage for 18 days measured on day 14; assay type: organism-based; conditions: in vivo, 432 h
[13] = system: A549; experiment: Antiproliferative activity against human A549 cells harboring wild type EGFR after 72 hrs by MTT assay; assay type: functional, cell-based; conditions: A549, 72 h
[14] = target: Tyrosine-protein kinase Fgr (Homo sapiens, UniProt P09769); experiment: Inhibition of recombinant human N-terminal His6-tagged FGR (2 to end residues) expressed in baculovirus Sf21 insect cells preincubated for 5 mins followed by substrate addition after 30 to 60 mins in presence of ATP by fluorescence assay
[15] = target: Serine/threonine-protein kinase Nek2 (Homo sapiens, UniProt P51955); experiment: Inhibition of recombinant human full length N-terminal His6-tagged NEK2 expressed in baculovirus Sf21 insect cells preincubated for 5 mins followed by substrate addition after 30 to 60 mins in presence of ATP by fluorescence assay
[16] = species: Homo sapiens; experiment: Selectivity ratio of IC50 for recombinant human N-terminal His6-tagged PLK1 to IC50 for human full length N-terminal His6-tagged BMX
[17] = species: Homo sapiens; experiment: Selectivity ratio of IC50 for human PDGFRalpha to IC50 for human full length N-terminal His6-tagged BMX
[18] = species: Homo sapiens; experiment: Selectivity ratio of IC50 for recombinant human N-terminal His6-tagged FMS (538 to end residues) to IC50 for human full length N-terminal His6-tagged BMX
[19] = target: Receptor tyrosine-protein kinase erbB-2 (Homo sapiens, UniProt P04626); experiment: Inhibition of human C-terminal 6His-tagged Her2 (676 to end) expressed in baculovirus Sf21 insect cells preincubated for 5 mins followed by biotinyl-beta Abeta Abeta AAEEEEYFELVAKKK substrate addition after 30 to 60 mins in presence of ATP by fluorescence assay
[20] = target: Tyrosine-protein kinase TXK (Homo sapiens, UniProt P42681); experiment: Inhibition of recombinant human N-terminal His6-tagged TXK (256 to end residues) expressed in baculovirus Sf21 insect cells preincubated for 5 mins followed by substrate addition after 30 to 60 mins in presence of ATP by fluorescence assay
[21] = species: Homo sapiens; experiment: Selectivity ratio of IC50 for recombinant human N-terminal GST-tagged MKK7beta (2 to end residues) to IC50 for human full length N-terminal His6-tagged BMX
[22] = target: Protein-tyrosine kinase 6 (Homo sapiens, UniProt Q13882); experiment: Inhibition of recombinant human full length N-terminal His6-tagged BRK expressed in baculovirus Sf21 insect cells preincubated for 5 mins followed by substrate addition after 30 to 60 mins in presence of ATP by fluorescence assay
[23] = target: Serine/threonine-protein kinase PLK1 (Homo sapiens, UniProt P53350); experiment: Inhibition of recombinant human N-terminal His6-tagged PLK1 expressed in baculovirus Sf21 insect cells preincubated for 5 mins followed by substrate addition after 30 to 60 mins in presence of ATP by fluorescence assay
[24] = target: Platelet-derived growth factor receptor alpha (Homo sapiens, UniProt P16234); experiment: Inhibition of human PDGFRalpha expressed in baculovirus Sf21 insect cells preincubated for 5 mins followed by substrate addition after 30 to 60 mins in presence of ATP by fluorescence assay
[25] = target: Tyrosine-protein kinase Tec (Homo sapiens, UniProt P42680); experiment: Inhibition of recombinant human N-terminal His6-tagged TEC (174 to end residues) expressed in baculovirus Sf21 insect cells preincubated for 5 mins followed by Ulight-TK peptide substrate addition after 30 to 60 mins in presence of ATP by fluorescence assay
[26] = species: Homo sapiens; experiment: Selectivity ratio of IC50 for recombinant human full length N-terminal His6-tagged FYN to IC50 for human full length N-terminal His6-tagged BMX
[27] = species: Homo sapiens; experiment: Selectivity ratio of IC50 for recombinant human full length N-terminal His6-tagged YES to IC50 for human full length N-terminal His6-tagged BMX
[28] = system: Mus musculus; experiment: Toxicity in nude mouse xenografted with human NCI-H1975 cells assessed as adverse effects at 25 mg/kg administered qd via oral gavage for 18 days measured on day 14; assay type: organism-based; conditions: in vivo, 432 h
[29] = target: Tyrosine-protein kinase BTK (Homo sapiens, UniProt Q06187); experiment: Inhibition of recombinant human full length N-terminal His6-tagged BTK expressed in baculovirus Sf21 insect cells preincubated for 5 mins followed by LSNLYHQGKFLQT substrate addition after 30 to 60 mins in presence of ATP by fluorescence assay

Chain of Tyrosine-protein kinase Fyn (P06241 whole entry): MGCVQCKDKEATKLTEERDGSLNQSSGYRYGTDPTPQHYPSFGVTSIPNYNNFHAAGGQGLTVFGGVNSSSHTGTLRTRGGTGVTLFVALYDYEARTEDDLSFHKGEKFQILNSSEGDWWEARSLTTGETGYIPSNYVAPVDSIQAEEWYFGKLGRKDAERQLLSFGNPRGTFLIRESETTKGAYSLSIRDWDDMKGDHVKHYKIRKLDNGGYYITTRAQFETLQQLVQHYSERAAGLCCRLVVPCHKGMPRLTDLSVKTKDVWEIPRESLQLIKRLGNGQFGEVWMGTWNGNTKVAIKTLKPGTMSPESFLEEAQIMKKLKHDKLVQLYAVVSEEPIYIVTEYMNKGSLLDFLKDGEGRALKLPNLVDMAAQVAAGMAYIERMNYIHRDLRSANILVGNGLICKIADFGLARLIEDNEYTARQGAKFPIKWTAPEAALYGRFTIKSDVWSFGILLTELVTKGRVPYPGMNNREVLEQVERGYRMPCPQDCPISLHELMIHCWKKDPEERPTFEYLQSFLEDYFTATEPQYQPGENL
Chain of Serine/threonine-protein kinase PLK1 (P53350 whole entry): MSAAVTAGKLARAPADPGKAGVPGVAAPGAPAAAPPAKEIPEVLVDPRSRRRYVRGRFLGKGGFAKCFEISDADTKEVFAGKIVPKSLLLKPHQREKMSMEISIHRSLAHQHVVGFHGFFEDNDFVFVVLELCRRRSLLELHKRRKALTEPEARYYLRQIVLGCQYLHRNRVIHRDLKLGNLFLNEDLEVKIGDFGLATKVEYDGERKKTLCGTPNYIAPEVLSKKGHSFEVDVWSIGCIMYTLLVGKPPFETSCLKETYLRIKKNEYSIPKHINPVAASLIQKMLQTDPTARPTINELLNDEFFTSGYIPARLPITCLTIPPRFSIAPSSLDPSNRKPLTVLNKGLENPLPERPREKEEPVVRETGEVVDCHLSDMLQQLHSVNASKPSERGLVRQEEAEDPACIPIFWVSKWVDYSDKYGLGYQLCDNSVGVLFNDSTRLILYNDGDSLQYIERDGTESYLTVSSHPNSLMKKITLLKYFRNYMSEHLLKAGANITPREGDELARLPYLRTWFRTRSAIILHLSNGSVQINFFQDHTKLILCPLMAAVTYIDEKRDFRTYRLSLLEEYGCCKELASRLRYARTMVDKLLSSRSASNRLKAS
Chain of Tyrosine-protein kinase ABL1 (P00519 whole entry): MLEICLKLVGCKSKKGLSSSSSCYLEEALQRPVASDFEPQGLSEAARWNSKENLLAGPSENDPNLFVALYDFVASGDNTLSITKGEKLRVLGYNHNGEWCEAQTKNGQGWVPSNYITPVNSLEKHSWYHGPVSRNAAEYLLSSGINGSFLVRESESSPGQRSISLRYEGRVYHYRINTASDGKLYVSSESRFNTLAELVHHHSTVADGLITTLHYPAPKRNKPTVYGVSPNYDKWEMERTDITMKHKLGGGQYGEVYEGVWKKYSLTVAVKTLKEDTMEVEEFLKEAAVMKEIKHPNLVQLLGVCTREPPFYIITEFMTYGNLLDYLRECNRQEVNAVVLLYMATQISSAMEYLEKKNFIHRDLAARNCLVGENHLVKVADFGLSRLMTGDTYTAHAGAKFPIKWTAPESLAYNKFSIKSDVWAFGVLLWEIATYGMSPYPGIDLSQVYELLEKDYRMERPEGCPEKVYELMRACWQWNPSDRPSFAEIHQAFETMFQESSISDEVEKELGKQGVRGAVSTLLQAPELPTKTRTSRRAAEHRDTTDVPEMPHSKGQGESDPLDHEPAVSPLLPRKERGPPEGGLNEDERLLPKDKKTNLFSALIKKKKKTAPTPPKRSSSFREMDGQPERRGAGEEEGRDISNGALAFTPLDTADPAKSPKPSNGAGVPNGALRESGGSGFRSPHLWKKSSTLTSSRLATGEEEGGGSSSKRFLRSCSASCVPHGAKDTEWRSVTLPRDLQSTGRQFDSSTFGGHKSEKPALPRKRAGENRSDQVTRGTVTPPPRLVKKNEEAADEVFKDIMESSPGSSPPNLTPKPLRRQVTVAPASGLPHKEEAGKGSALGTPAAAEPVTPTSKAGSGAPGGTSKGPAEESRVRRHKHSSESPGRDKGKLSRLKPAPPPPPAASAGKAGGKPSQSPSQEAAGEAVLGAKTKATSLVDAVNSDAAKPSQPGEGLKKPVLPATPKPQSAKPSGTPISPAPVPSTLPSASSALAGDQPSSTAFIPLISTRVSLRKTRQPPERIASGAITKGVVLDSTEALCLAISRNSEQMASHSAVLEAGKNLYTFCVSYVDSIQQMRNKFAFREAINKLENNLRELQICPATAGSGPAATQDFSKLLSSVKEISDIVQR
Chain of Tyrosine-protein kinase Tec (P42680 whole entry): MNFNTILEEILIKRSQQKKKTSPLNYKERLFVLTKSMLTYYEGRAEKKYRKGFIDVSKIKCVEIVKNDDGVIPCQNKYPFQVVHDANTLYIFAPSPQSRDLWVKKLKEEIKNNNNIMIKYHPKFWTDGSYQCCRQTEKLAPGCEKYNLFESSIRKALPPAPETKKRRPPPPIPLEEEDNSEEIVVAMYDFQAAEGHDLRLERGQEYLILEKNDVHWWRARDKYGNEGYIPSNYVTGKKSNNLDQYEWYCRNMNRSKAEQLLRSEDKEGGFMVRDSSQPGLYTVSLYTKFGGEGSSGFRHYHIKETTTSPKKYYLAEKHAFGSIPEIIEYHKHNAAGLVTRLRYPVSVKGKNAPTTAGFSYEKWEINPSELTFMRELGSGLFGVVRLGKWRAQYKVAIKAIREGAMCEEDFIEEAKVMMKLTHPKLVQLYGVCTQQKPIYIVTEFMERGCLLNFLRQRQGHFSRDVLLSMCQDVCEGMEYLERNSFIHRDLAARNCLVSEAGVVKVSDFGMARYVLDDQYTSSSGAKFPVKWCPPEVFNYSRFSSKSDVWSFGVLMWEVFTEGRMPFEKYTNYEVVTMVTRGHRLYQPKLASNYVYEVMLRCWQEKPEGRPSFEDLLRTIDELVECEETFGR
Chain of Dual specificity mitogen-activated protein kinase kinase 7 (O14733 whole entry): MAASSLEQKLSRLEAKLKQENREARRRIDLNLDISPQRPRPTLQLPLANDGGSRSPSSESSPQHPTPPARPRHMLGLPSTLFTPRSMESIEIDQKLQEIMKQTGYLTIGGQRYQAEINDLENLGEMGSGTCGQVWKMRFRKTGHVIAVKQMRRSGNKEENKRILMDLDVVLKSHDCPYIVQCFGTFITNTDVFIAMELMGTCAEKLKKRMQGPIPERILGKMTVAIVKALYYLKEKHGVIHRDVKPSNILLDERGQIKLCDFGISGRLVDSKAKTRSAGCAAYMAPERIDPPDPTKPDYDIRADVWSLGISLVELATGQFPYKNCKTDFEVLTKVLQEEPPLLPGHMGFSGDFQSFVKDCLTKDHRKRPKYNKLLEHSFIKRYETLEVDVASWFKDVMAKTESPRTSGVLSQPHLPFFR
Chain of Serine/threonine-protein kinase Nek2 (P51955 whole entry): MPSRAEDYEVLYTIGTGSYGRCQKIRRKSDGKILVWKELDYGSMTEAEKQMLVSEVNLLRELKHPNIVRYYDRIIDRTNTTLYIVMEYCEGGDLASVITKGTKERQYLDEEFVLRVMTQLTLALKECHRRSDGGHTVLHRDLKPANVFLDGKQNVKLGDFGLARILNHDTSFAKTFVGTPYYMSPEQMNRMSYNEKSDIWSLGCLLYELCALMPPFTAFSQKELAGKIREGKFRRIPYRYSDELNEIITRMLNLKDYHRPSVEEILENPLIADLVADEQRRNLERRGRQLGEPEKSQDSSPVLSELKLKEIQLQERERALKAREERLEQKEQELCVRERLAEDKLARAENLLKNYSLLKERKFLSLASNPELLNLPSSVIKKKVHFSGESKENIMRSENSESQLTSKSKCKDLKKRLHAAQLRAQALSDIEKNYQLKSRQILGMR
Chain of Platelet-derived growth factor receptor alpha (P16234 whole entry): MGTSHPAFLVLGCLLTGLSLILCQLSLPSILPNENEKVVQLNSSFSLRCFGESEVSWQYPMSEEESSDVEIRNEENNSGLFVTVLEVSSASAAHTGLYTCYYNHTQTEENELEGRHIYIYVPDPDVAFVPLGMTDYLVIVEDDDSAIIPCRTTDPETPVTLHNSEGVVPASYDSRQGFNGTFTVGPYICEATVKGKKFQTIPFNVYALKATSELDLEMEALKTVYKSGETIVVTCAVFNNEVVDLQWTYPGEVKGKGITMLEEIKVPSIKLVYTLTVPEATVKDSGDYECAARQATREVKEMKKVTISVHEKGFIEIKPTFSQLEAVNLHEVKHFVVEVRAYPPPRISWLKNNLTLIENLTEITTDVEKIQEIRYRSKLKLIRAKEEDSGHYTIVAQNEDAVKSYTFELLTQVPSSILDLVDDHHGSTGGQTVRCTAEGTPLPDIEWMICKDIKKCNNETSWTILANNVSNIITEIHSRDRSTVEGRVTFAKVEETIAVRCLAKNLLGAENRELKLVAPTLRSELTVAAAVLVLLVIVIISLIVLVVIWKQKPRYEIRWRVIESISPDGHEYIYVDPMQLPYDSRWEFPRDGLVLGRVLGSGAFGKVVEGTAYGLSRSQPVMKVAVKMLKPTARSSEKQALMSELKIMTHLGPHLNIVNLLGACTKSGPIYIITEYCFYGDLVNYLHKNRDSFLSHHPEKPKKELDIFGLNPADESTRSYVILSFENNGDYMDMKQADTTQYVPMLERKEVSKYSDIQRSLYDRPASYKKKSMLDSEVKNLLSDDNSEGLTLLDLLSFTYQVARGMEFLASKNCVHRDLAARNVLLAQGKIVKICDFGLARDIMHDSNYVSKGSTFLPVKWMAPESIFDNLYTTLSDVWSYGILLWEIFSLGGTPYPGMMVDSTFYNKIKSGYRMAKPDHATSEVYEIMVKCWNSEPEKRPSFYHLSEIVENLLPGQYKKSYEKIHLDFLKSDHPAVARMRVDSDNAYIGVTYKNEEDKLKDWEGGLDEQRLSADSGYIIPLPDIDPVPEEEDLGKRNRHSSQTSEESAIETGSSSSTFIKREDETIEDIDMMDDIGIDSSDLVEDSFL

SMILES: C=CS(=O)(=O)N1CCC[C@@H]1Cn1cc(-c2ccc3c(c2)OCO3)c2c(N)ncnc21
- Ratio IC50 [1]: 2.5
- IC50 [2]: 0.43 µM
- Ratio IC50 [3]: 5.9
- IC50 [4]: 0.801 µM
- Ratio IC50 [5]: 5.5
- Ratio IC50 [6]: 37.8
- Activity [7]: Non-Toxic
- IC50 [8]: 0.312 µM
- Ratio IC50 [9]: 229
- IC50 [10]: > 10 µM
- IC50 [11]: 0.189 µM
- Activity [12]: Non-Toxic
- IC50 [13]: 4.15 µM
- IC50 [14]: 0.133 µM
- IC50 [15]: > 10 µM
- Ratio IC50 [16]: > 280
- Ratio IC50 [17]: > 280
- Ratio IC50 [18]: 114
- IC50 [19]: 1.35 µM
- IC50 [20]: 0.883 µM
- Ratio IC50 [21]: 5.3
- IC50 [22]: 0.22 µM
- IC50 [23]: > 10 µM
- IC50 [24]: > 10 µM
- IC50 [25]: 0.115 µM
- Ratio IC50 [26]: 12
- Ratio IC50 [27]: 1.6
- Activity [28]: Non-Toxic
- IC50 [29]: 0.0886 µM
